Data reported in patent publication US20160052936A1, “SPIROINDOLINE DERIVATIVES FOR USE AS GONADOTROPIN-RELEASING HORMONE RECEPTOR ANTAGONISTS” (BAYER PHARMA AKTIENGESELLSCHAFT, priority 2013, published 2016).

Columns and labels:
human GnRHR = target: T1, human GnRHR (Homo sapiens, UniProt P30968); test: Tag-Lite receptor binding assay; details: Hek293 cells transiently transfected with human GnRHR; displacement of green-labelled GnRHR binding peptide; read-out: Potency in receptor binding assay using TAG-LITE technology, given as IC50
T1 construct: own knowledge: Tag-lite cells usually carry an N-terminal SNAP-tag fusion; host or cells: Hek293 cells, transiently transfected, supplied frozen
T1 sequence (P30968 1-328): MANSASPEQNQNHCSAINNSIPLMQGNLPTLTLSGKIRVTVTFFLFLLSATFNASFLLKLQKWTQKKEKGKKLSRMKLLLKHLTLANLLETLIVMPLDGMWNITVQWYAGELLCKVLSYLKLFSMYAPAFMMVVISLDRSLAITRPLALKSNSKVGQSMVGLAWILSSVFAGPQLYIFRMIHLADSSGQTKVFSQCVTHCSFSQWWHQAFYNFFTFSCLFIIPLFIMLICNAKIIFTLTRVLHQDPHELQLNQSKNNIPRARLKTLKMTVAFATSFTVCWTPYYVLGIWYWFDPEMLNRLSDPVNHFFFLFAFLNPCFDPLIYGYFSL
Description: 2.2. Tag-Lite® Receptor Binding Assay
This binding assay is based on the fluorescence resonance energy transfer between fluorescence donor labelled human GnRHR and a green-labelled GnRHR binding peptide. Compounds interfering with the ligand binding side of the human GnRHR will replace the labelled peptide resulting in a signal decrease. The assay principle was established by Cisbio Bioassays (Bagnols-sur-Cèze Cedex, France) and further details are available on their homepage.
The assay procedure was further optimized for use in-house with reduced assay volumes. Frozen Hek293 cells, transiently transfected with human GnRHR and Terbium-labelling of the receptor, were supplied by Cisbio Bioassays as well as Tag-Lite buffer and green-labelled GnRHR binding peptide. Cells were thawed and transferred to cold Tag-Lite buffer. A volume of 8 μl of this cell suspension were added to 100 nl of a 160-fold concentrated solution of the test compound in DMSO pre-dispensed in a well of a white low-volume 384-well microtiter plate (Greiner Bio-One, Frickenhausen, Germany). The mixture was incubated for 5 min at room temperature. In the next step either 4 μl Tag-Lite buffer or as control 4 μl of an exceeding amount unlabelled binding peptide in Tag-Lite buffer were transferred to the mixture. The green-labelled GnRHR binding peptide was added in a final step at EC50 in a volume of 4 μl Tag-Lite buffer. After an incubation of 1 h at room temperature plates were measured in a microplate reader, e.g. a PHERAstar (BMG Labtechnologies, Offenburg, Germany) by using a specific optic module.
A ratio from the fluorescence emissions at 520 nm (green fluorescence) and at 490 nm (background signal of Terbium-labelled GnRHR) was calculated and the data were normalized (reaction without test compound=0% inhibition of binding of green-labelled peptide; reaction without test compound with exceeding amount unlabelled binding peptide=100% inhibition of binding of green-labelled peptide). On the same microtiter plate, compounds were tested at 10 different concentrations in the range of 12.5 μM to 0.64 nM (12.5 μM, 4.2 μM, 1.4 μM, 0.46 μM, 0.15 μM, 51 nM, 17 nM, 5.7 nM, 1.9 nM and 0.64 nM; dilution series prepared before the assay at the level of the 160-fold conc. stock solutions by serial 1:3 dilutions in 100% DMSO) in duplicate values for each concentration. By using an in-house software, the IC50 values were calculated by a 4 parameter fit.

[1] = test system: LH level in ovariectomized rats; test: LH suppression in the ovariectomized rat; format: in vivo; details: for LH suppression: 8 hours after administration
Description: 2.5. LH Suppression in the Ovariectomized Rat
The in vivo potency of GnRH antagonists can be quantified by a LH suppression test in ovariectomized rats. GnRH triggers the LH release from the pituitary mediated by GnRH receptors. Ovarectomy of adult female rats results in elevated levels of circulating LH due to a lack of negative feedback by gonadal steroids. GnRH antagonists suppress the release of LH and accordingly suppression of LH levels can be used to quantify the in vivo potency of GnRH antagonists.
Female adult rats were ovariectomized surgically and they were allowed to recover for at least one week. The animals received 0.5 mg/kg, 3 mg/kg or 10 mg/kg of Example 3.1 by single per oral administration. For comparison reasons a vehicle control and a positive control, 0.1 mg/kg cetrorelix (i.p.), were given once. At 0 min, 15 min, 30 min, 1 hour, 2 hours, 4 hours, 8 hours and 24 hours after compound administration blood was taken from the retro orbital plexus (n=6 per blood withdrawal) for the measurement of serum LH and serum compound levels.
As nonbinding explanatory example of compounds according to the invention FIG. 1 represents the LH level following administration of the compound according to Example 3.1, to ovariectomized adult rats. [Filled circle: Vehicle; Circle, dotted black line: Cetrorelix (0.1 mg/kg); Triangle: Example 3.1 (0.5 mg/kg); Reverse triangle: Example 3.1 (3 mg/kg); Diamond: Example 3.1 (10 mg/kg)]. Values are given as mean+standard deviation (n=6).

SMILES	IC50 (human GnRHR)	LH suppression ([1]; 0.5 mg/kg single per oral administration)	LH suppression ([1]; 3 mg/kg single per oral administration)	LH suppression ([1]; 10 mg/kg single per oral administration)	in vivo GnRH antagonist activity (conclusion) ([1]; per oral administration)
O=C(NCc1ncc(C(F)(F)F)cc1Cl)c1ccc2c(c1)C1(CCS(=O)(=O)CC1)[C@H](C1CC1)N2S(=O)(=O)c1ccc(F)cc1 [Example 3.1, (2S)—N-{[3-chloro-5-(trifluoromethyl)pyridin-2-yl]methyl}-2-cyclopropyl-1-[(4-fluorophenyl)sulfonyl]-1,2,2′,3′,5′,6′-hexahydrospiro[indole-3,4′-thiopyran]-5-carboxamide 1′,1′-dioxide]	16.7 nM	19%	48%	90%	orally active GnRH antagonist in vivo
O=C(NCc1ncc(C(F)(F)F)cc1F)c1ccc2c(c1)C1(CCS(=O)(=O)CC1)[C@H](C1CC1)N2S(=O)(=O)c1ccc(F)cc1 (single isomer, unassigned) [Example 1.1]	230 nM				
N#Cc1cccc(S(=O)(=O)N2c3ccc(C(=O)NCc4ncc(C(F)(F)F)cc4Cl)cc3C3(CCS(=O)(=O)CC3)[C@@H]2C2CC2)c1 (single isomer, unassigned) [Example 10.1]	10.3 nM				
